In ChEMBL document CHEMBL4665687, “Isolation of 2-Alkyl-4-quinolones with Unusual Side Chains from a Chinese Pseudomonas aeruginosa Isolate” (J Nat Prod, 2020):
The source made the active and inactive calls. No cut-off for these calls is given here.

Columns and labels:
[1] = tested on: Staphylococcus epidermidis; experiment: Antibacterial activity against Staphylococcus epidermidis; type: functional, organism-based
[2] = tested on: Staphylococcus aureus; experiment: Antibacterial activity against Staphylococcus aureus; type: functional, organism-based
[3] = tested on: HeLa; experiment: Cytotoxicity against human HeLa cells assessed as reduction in cell viability; type: functional, cell-based

| SMILES | Activity [1] | Activity [2] | Activity [3] |
| --- | --- | --- | --- |
| CCCCC/C=C/c1cc(=O)c2ccccc2[nH]1 | Active | Active | inactive |
| CS/C=C/c1cc(=O)c2ccccc2[nH]1 | Active | Active | inactive |
| CCCCCCC/C=C/c1cc(=O)c2ccccc2[nH]1 | Active | Active | inactive |
| CCCC/C=C/Cc1cc(=O)c2ccccc2[nH]1 | Active | Active | inactive |
| CCCCCCCCC/C=C/c1cc(=O)c2ccccc2[nH]1 | Active | Active | inactive |
| CCCCCCCCc1cc(=O)c2ccccc2[nH]1 | Active | Active | inactive |
| CCCCCCCCCc1cc(=O)c2ccccc2[nH]1 | Active | Active | inactive |
| CC(C)CCCCc1cc(=O)c2ccccc2[nH]1 | Active | Active | inactive |
| CCCCCCCc1cc(=O)c2ccccc2[nH]1 | Active | Active | inactive |
| CCCCCC/C=C\CCCc1cc(=O)c2ccccc2[nH]1 | Active | Active | inactive |
| CCCCCC/C=C/Cc1cc(=O)c2ccccc2[nH]1 | Active | Active | inactive |
| CCCC/C=C/CCCc1cc(=O)c2ccccc2[nH]1 | Active | Active | inactive |
| CCCCCC/C=C\CCCc1cc(=O)c2ccccc2n1O | Active | Active | inactive |
| O=c1cc(Cc2ccccc2)[nH]c2ccccc12 | Active | Active | inactive |
| CC/C(C)=C/Cc1cc(=O)c2ccccc2[nH]1 | Active | Active | inactive |
| CCCCCCCc1cc(O)c2ccccc2[n+]1[O-] | Active | Active | inactive |
